Experimental data as given in the supplement of paper PMC10883282.
± gives the standard deviation of the averaged measurements.

Test system: SW1353
Assay: relative viability vs DMSO control (72 h) (fraction); higher = more viable cells
Outline: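 Plates held 72 h at 37 °C and 5% CO2 contained sarcoma cell lines seeded in 384-well format to reach 80–90% confluence, plus 2.5 µl of serially diluted compound added after 24 h. Source plate concentrations ran from 10 mM to 0.0002 mM, with 0.1% DMSO as vehicle and a 5 µM positive control. Percent growth from ATPLite readings, averaged over up to triplicate wells, gave relative viability. Values were rescaled with 1 as full and 0 as none.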

Question: Which relative viability (0.00017 µM) does the source give for COc1cc2nccc(Oc3ccc(NC(=O)Nc4cc(C)on4)c(Cl)c3)c2cc1OC [Tivozanib] here?
Answer: The relative viability was 0.97 ± 0.029.

Question: And the relative viability (0.00051 µM)?
Answer: Its relative viability is 0.983 ± 0.036.

Question: What about the relative viability (0.00152 µM) of the same compound?
Answer: Its relative viability is 0.965 ± 0.044.

Question: What about the relative viability (0.00457 µM) of the same compound?
Answer: Its relative viability is 0.961 ± 0.064.

Question: What about the relative viability (0.01372 µM) of the same compound?
Answer: The relative viability was 1.01 ± 0.033.

Question: What about the relative viability (0.04115 µM) of the same compound?
Answer: The relative viability was 0.988 ± 0.028.

Question: And the relative viability (0.1235 µM)?
Answer: Its relative viability is 1.01 ± 0.021.

Question: And the relative viability (0.3704 µM)?
Answer: Its relative viability is 1.04 ± 0.021.

Question: And the relative viability (1.111 µM)?
Answer: Its relative viability is 1.05 ± 0.054.

Question: And the relative viability (3.333 µM)?
Answer: The relative viability was 0.8973 ± 0.0033.

Question: What about the relative viability (10 µM) of the same compound?
Answer: The relative viability was 0.582 ± 0.0097.

Question: What does the source list for C[C@]1(O)C[C@@H](c2nc(-c3ccc4ccc(-c5ccccc5)nc4c3)c3c(N)nccn32)C1 [Linsitinib]?
Answer: relative viability (0.00017 µM): 1.03 ± 0.017; relative viability (0.00051 µM): 1 ± 0.024; relative viability (0.00152 µM): 1.03 ± 0.03; relative viability (0.00457 µM): 0.977 ± 0.024; relative viability (0.01372 µM): 1.03 ± 0.017; relative viability (0.04115 µM): 1.01 ± 0.014; relative viability (0.1235 µM): 0.978 ± 0.041; relative viability (0.3704 µM): 0.967 ± 0.029; relative viability (1.111 µM): 0.9847 ± 0.0087; relative viability (3.333 µM): 0.949 ± 0.05; relative viability (10 µM): 0.866 ± 0.024

Question: What does the source list for C=CC(=O)Nc1cccc(Oc2nc(Nc3ccc(N4CCN(C)CC4)cc3)nc3ccsc23)c1 [Olmutinib]?
Answer: relative viability (0.00017 µM): 1.03 ± 0.048; relative viability (0.00051 µM): 1.06 ± 0.059; relative viability (0.00152 µM): 1.04 ± 0.013; relative viability (0.00457 µM): 1.04 ± 0.048; relative viability (0.01372 µM): 1.03 ± 0.038; relative viability (0.04115 µM): 1.02 ± 0.03; relative viability (0.1235 µM): 0.997 ± 0.031; relative viability (0.3704 µM): 0.95 ± 0.086; relative viability (1.111 µM): 0.857 ± 0.021; relative viability (3.333 µM): 0.755 ± 0.012; relative viability (10 µM): 0.104 ± 0.0062

Question: With O=C(Nc1cnn2ccc(N3CCC[C@@H]3c3cc(F)ccc3F)nc12)N1CC[C@H](O)C1 [Larotrectinib] as the compound, how does the relative viability (0.00017 µM) read?
Answer: The relative viability was 1.07 ± 0.043.

Question: And the relative viability (0.00051 µM)?
Answer: Its relative viability is 1.07 ± 0.027.

Question: And the relative viability (0.00152 µM)?
Answer: The relative viability was 1 ± 0.033.

Question: What about the relative viability (0.00457 µM) of the same compound?
Answer: Its relative viability is 1.01 ± 0.057.

Question: And the relative viability (0.01372 µM)?
Answer: The relative viability was 1.03 ± 0.034.

Question: And the relative viability (0.04115 µM)?
Answer: The relative viability was 0.954 ± 0.026.

Question: And the relative viability (0.1235 µM)?
Answer: The relative viability was 0.99 ± 0.025.

Question: And the relative viability (0.3704 µM)?
Answer: Its relative viability is 0.9488 ± 0.0041.

Question: What about the relative viability (1.111 µM) of the same compound?
Answer: Its relative viability is 0.984 ± 0.053.

Question: And the relative viability (3.333 µM)?
Answer: The relative viability was 0.979 ± 0.025.

Question: And the relative viability (10 µM)?
Answer: The relative viability was 0.921 ± 0.047.
